In PubChem BioAssay AID248 (DTP/NCI, 2004):
“And” between values parts separate entries of the source, which are not always exact repeats. Equal entries are not always repeated. Toxic doses and inconclusive results are not listed.

System: L1210 leukemia ip in BDF1 mice, survival T/C
Assay: NCI In Vivo Anticancer Drug Screen. Data for tumor model L1210 Leukemia (intraperitoneal) in B6D2F1 (BDF1) mice
Conditions: higher = longer survival
Method in brief: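 Value reflects the ratio of survival in compound-treated mice to survival in vehicle-treated controls, with both groups carrying the same transplanted tumor.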

[1] = endpoint: mean survival time, dose: 100.0 mg/kg/injection, schedule: Q01DX001 (ip), vehicle: saline
[2] = endpoint: mean survival time, dose: 200.0 mg/kg/injection, schedule: Q01DX001 (ip), vehicle: saline
[3] = endpoint: mean survival time, dose: 400.0 mg/kg/injection, schedule: Q01DX001 (ip), vehicle: saline
[4] = endpoint: mean survival time, dose: 400.0 mg/kg/injection, schedule: Q01DX009 (ip), vehicle: saline

`O=C1C=CN(C2OC(CO)C(O)C2O)C(=O)C1` (stereo not drawn) was tested, and the T/C (endpoint: mean survival time, dose: 0.75 mg/kg/injection, schedule: Q01DX009 (ip), vehicle: saline) was 117 % of control, the T/C (endpoint: mean survival time, dose: 1.5 mg/kg/injection, schedule: Q01DX009 (ip), vehicle: saline) was 117 % of control and the T/C (endpoint: mean survival time, dose: 4.8 mg/kg/injection, schedule: Q01DX009 (ip), vehicle: saline) was 120 % of control. The T/C (endpoint: mean survival time, dose: 7.8 mg/kg/injection, schedule: Q01DX005 (ip), vehicle: other) was 107 % of control, the T/C (endpoint: mean survival time, dose: 15.75 mg/kg/injection, schedule: Q01DX005 (ip), vehicle: other) was 116 % of control and the T/C (endpoint: mean survival time, dose: 22.0 mg/kg/injection, schedule: Q01DX009 (ip), vehicle: saline) was 124 % of control. For the same molecule, the T/C (endpoint: mean survival time, dose: 31.25 mg/kg/injection, schedule: Q01DX005 (ip), vehicle: other) was 123 % of control, the T/C (endpoint: mean survival time, dose: 62.5 mg/kg/injection, schedule: Q01DX005 (ip), vehicle: other) was 124 % of control and the T/C [1] was 105 % of control. The T/C (endpoint: mean survival time, dose: 100.0 mg/kg/injection, schedule: Q04DX003 (ip), vehicle: saline) was 108 % of control, the T/C (endpoint: mean survival time, dose: 112.0 mg/kg/injection, schedule: Q03HX024 (ip), vehicle: saline) was 176 % of control and the T/C [2] was 114 % of control. The T/C (endpoint: mean survival time, dose: 200.0 mg/kg/injection, schedule: Q04DX003 (ip), vehicle: saline) was 119 % of control, the T/C [3] was 105 % of control and the T/C [4] was 115 % of control. For the same molecule, the T/C (endpoint: mean survival time, dose: 400.0 mg/kg/injection, schedule: Q04DX003 (ip), vehicle: saline) was 116 % of control, the T/C (endpoint: median survival time, dose: 6.25 mg/kg/injection, schedule: Q01DX009 (ip), vehicle: saline) was 122 % of control and the T/C (endpoint: median survival time, dose: 12.5 mg/kg/injection, schedule: Q01DX009 (ip), vehicle: saline) was 122 % of control. For the same molecule, the T/C (endpoint: median survival time, dose: 16.0 mg/kg/injection, schedule: Q03HX008 (ip), vehicle: saline) was 105 % of control, the T/C (endpoint: median survival time, dose: 16.0 mg/kg/injection, schedule: Q03HX016 (ip), vehicle: saline) was 103 % of control and the T/C (endpoint: median survival time, dose: 26.0 mg/kg/injection, schedule: Q03HX024 (ip), vehicle: saline) was 150 % of control. The T/C (endpoint: median survival time, dose: 32.0 mg/kg/injection, schedule: Q01DX009 (sc), vehicle: saline) was 118 % of control, the T/C (endpoint: median survival time, dose: 32.0 mg/kg/injection, schedule: Q03HX008 (ip), vehicle: saline) was 106 % of control and the T/C (endpoint: median survival time, dose: 32.0 mg/kg/injection, schedule: Q03HX016 (ip), vehicle: saline) was 101 % of control. For the same molecule, the T/C (endpoint: median survival time, dose: 64.0 mg/kg/injection, schedule: Q01DX009 (sc), vehicle: saline) was 123 % of control, the T/C (endpoint: median survival time, dose: 64.0 mg/kg/injection, schedule: Q03HX008 (ip), vehicle: saline) was 103 % of control and the T/C (endpoint: median survival time, dose: 64.0 mg/kg/injection, schedule: Q03HX016 (ip), vehicle: saline) was 103 % of control. The T/C (endpoint: median survival time, dose: 64.0 mg/kg/injection, schedule: Q04DX003 (ip), vehicle: saline) was 103 % of control, the T/C (endpoint: median survival time, dose: 74.0 mg/kg/injection, schedule: Q01DX009 (oral), vehicle: saline) was 116 % of control and the T/C (endpoint: median survival time, dose: 110.0 mg/kg/injection, schedule: Q01DX009 (oral), vehicle: saline) was 100 % of control. For the same molecule, the T/C (endpoint: median survival time, dose: 128.0 mg/kg/injection, schedule: Q01DX001 (ip), vehicle: saline) was 98 % of control, the T/C (endpoint: median survival time, dose: 128.0 mg/kg/injection, schedule: Q01DX009 (ip), vehicle: saline) was 156 % of control and the T/C (endpoint: median survival time, dose: 128.0 mg/kg/injection, schedule: Q01DX009 (oral), vehicle: saline) was 111 % of control. For the same molecule, the T/C (endpoint: median survival time, dose: 128.0 mg/kg/injection, schedule: Q03HX008 (ip), vehicle: saline) was 108 % of control, the T/C (endpoint: median survival time, dose: 128.0 mg/kg/injection, schedule: Q03HX016 (ip), vehicle: saline) was 110 % of control and the T/C (endpoint: median survival time, dose: 128.0 mg/kg/injection, schedule: Q04DX003 (ip), vehicle: saline) was 104 % of control. The T/C (endpoint: median survival time, dose: 128.0 mg/kg/injection, schedule: Q04DX003 (oral), vehicle: saline) was 104 % of control and 110 % of control, the T/C (endpoint: median survival time, dose: 128.0 mg/kg/injection, schedule: Q04DX003 (sc), vehicle: saline) was 112 % of control and the T/C (endpoint: median survival time, dose: 128.0 mg/kg/injection, schedule: Q08DX002 (ip), vehicle: saline) was 94 % of control. The T/C (endpoint: median survival time, dose: 164.0 mg/kg/injection, schedule: Q01DX009 (oral), vehicle: saline) was 111 % of control, the T/C (endpoint: median survival time, dose: 170.0 mg/kg/injection, schedule: Q04DX003 (ip), vehicle: saline) was 111 % of control and the T/C (endpoint: median survival time, dose: 248.0 mg/kg/injection, schedule: Q01DX009 (oral), vehicle: saline) was 100 % of control. For the same molecule, the T/C (endpoint: median survival time, dose: 256.0 mg/kg/injection, schedule: Q01DX001 (ip), vehicle: saline) was 105 % of control, the T/C (endpoint: median survival time, dose: 256.0 mg/kg/injection, schedule: Q01DX009 (ip), vehicle: saline) was 180 % of control and the T/C (endpoint: median survival time, dose: 256.0 mg/kg/injection, schedule: Q01DX009 (oral), vehicle: saline) was 107 % of control and 110 % of control. The T/C (endpoint: median survival time, dose: 256.0 mg/kg/injection, schedule: Q03HX008 (ip), vehicle: saline) was 116 % of control, the T/C (endpoint: median survival time, dose: 256.0 mg/kg/injection, schedule: Q03HX016 (ip), vehicle: saline) was 122 % of control and the T/C (endpoint: median survival time, dose: 256.0 mg/kg/injection, schedule: Q04DX003 (ip), vehicle: saline) was 112 % of control. The T/C (endpoint: median survival time, dose: 256.0 mg/kg/injection, schedule: Q04DX003 (oral), vehicle: saline) was 117 % of control and 123 % of control, the T/C (endpoint: median survival time, dose: 256.0 mg/kg/injection, schedule: Q04DX003 (sc), vehicle: saline) was 120 % of control and the T/C (endpoint: median survival time, dose: 256.0 mg/kg/injection, schedule: Q08DX002 (ip), vehicle: saline) was 97 % of control. For the same molecule, the T/C (endpoint: median survival time, dose: 260.0 mg/kg/injection, schedule: Q04DX003 (ip), vehicle: saline) was 111 % of control, the T/C (endpoint: median survival time, dose: 400.0 mg/kg/injection, schedule: Q01DX009 (ip), vehicle: saline) was 155 % of control and the T/C (endpoint: median survival time, dose: 512.0 mg/kg/injection, schedule: Q01DX001 (ip), vehicle: saline) was 100 % of control. For the same molecule, the T/C (endpoint: median survival time, dose: 512.0 mg/kg/injection, schedule: Q01DX009 (oral), vehicle: saline) was 97 % of control and 100 % of control, the T/C (endpoint: median survival time, dose: 512.0 mg/kg/injection, schedule: Q04DX003 (ip), vehicle: saline) was 122 % of control and the T/C (endpoint: median survival time, dose: 512.0 mg/kg/injection, schedule: Q04DX003 (oral), vehicle: saline) was 105 % of control. The T/C (endpoint: median survival time, dose: 512.0 mg/kg/injection, schedule: Q04DX003 (sc), vehicle: saline) was 119 % of control, the T/C (endpoint: median survival time, dose: 512.0 mg/kg/injection, schedule: Q08DX002 (ip), vehicle: saline) was 95 % of control and the T/C (endpoint: median survival time, dose: 580.0 mg/kg/injection, schedule: Q04DX003 (ip), vehicle: saline) was 111 % of control. The T/C (endpoint: median survival time, dose: 600.0 mg/kg/injection, schedule: Q01DX009 (ip), vehicle: saline) was 110 % of control, the T/C (endpoint: median survival time, dose: 1024.0 mg/kg/injection, schedule: Q01DX001 (ip), vehicle: saline) was 101 % of control and the T/C (endpoint: median survival time, dose: 1024.0 mg/kg/injection, schedule: Q01DX009 (oral), vehicle: saline) was 95 % of control. For the same molecule, the T/C (endpoint: median survival time, dose: 1024.0 mg/kg/injection, schedule: Q08DX002 (ip), vehicle: saline) was 106 % of control, the T/C (endpoint: median survival time, dose: 2048.0 mg/kg/injection, schedule: Q01DX001 (ip), vehicle: saline) was 111 % of control and the T/C (endpoint: median survival time, dose: 2048.0 mg/kg/injection, schedule: Q08DX002 (ip), vehicle: saline) was 119 % of control.

For `C=C(C)C12OC3(c4ccccc4)OC1C1C4OC4(CO)C(O)C4(O)C(=O)C(C)=CC4C1(O3)C(C)C2OC(=O)/C=C/C=C/c1ccccc1` (stereo not drawn), the T/C (endpoint: mean survival time, dose: 25.0 micrograms/kg/injection, schedule: Q01DX009 (ip), vehicle: alcohol) was 97 % of control, the T/C (endpoint: mean survival time, dose: 50.0 micrograms/kg/injection, schedule: Q01DX009 (ip), vehicle: alcohol) was 105 % of control and the T/C (endpoint: mean survival time, dose: 100.0 micrograms/kg/injection, schedule: Q01DX009 (ip), vehicle: alcohol) was 92 % of control. For the same molecule, the T/C (endpoint: mean survival time, dose: 200.0 micrograms/kg/injection, schedule: Q01DX009 (ip), vehicle: alcohol) was 92 % of control and the T/C (endpoint: mean survival time, dose: 400.0 micrograms/kg/injection, schedule: Q01DX009 (ip), vehicle: alcohol) was 103 % of control.

In the case of `COc1nccnc1NS(=O)(=O)c1ccc(N)cc1`, the T/C [1] is reported as 95 % of control, the T/C (endpoint: mean survival time, dose: 100.0 mg/kg/injection, schedule: Q01DX009 (ip), vehicle: saline) is reported as 92 % of control and the T/C [2] is reported as 96 % of control. For the same molecule, the T/C (endpoint: mean survival time, dose: 200.0 mg/kg/injection, schedule: Q01DX009 (ip), vehicle: saline) was 106 % of control, the T/C [3] was 102 % of control and the T/C [4] was 92 % of control.

In the case of `CC(C)(Cc1ccc(Cl)cc1)N=C(N)N`, the T/C (endpoint: mean survival time, dose: 25.0 mg/kg/injection, schedule: Q04DX002 (ip), vehicle: Klucel (hydroxypropylcellulose) (HPC)) is reported as 107 % of control, the T/C (endpoint: mean survival time, dose: 50.0 mg/kg/injection, schedule: Q04DX002 (ip), vehicle: Klucel (hydroxypropylcellulose) (HPC)) is reported as 95 % of control and the T/C (endpoint: mean survival time, dose: 100.0 mg/kg/injection, schedule: Q04DX002 (ip), vehicle: Klucel (hydroxypropylcellulose) (HPC)) is reported as 104 % of control.

With `CCCCSSCCCC` the T/C (endpoint: mean survival time, dose: 50.0 mg/kg/injection, schedule: Q01DX001 (ip), vehicle: Klucel (hydroxypropylcellulose) (HPC)) was 94 % of control, the T/C (endpoint: mean survival time, dose: 100.0 mg/kg/injection, schedule: Q01DX001 (ip), vehicle: Klucel (hydroxypropylcellulose) (HPC)) was 102 % of control and the T/C (endpoint: mean survival time, dose: 200.0 mg/kg/injection, schedule: Q01DX001 (ip), vehicle: Klucel (hydroxypropylcellulose) (HPC)) was 105 % of control.
